In patent US9546141B2, “Salts” (Sprout Pharmaceuticals, Inc., priority 2008, dated 2017):

Legend:
[1] = Solubility of the crystalline salt forms in water; format: physicochemical; conditions: shaken 2 hours, filtered, UV-spectroscopy
Protocol: Solubility of the different crystalline salt forms in water was determined by adding […] of compound into 5 ml of water at room temperature. The mixture was vigorously shaken for 2 hours at room temperature. Afterwards the undissolved solid was removed by filtering through a 0.45 μm PTFE filter, in the filtrate the dissolved amount of compound was determined by UV-spectroscopy.

[2] = Hygroscopicity (IGAsorp water sorption monitor); format: physicochemical; conditions: room temperature
Protocol: IGAsorp water sorption monitor from Hiden Isochema was used for the analysis of the hygroscopical behaviour at room temperature. • humidity profile: from 10-90% r.h. in steps of 10%, sorption as well as desorption profiles were registered • weight-in quantity: 10-20 mg

Structure (SMILES) | solubility in water at room temperature [1] [µg/mL] | hygroscopicity expressed in the uptake of water in the range of 10-90% relative humidity [2] [%]
O=C(O)C(=O)O.O=c1[nH]c2ccccc2n1CCN1CCN(c2cccc(C(F)(F)F)c2)CC1 [IX, 1-[2-(4-(3-trifluoro-methyl-phenyl)piperazin-1-yl)ethyl]-2,3-dihydro-1H-benzimidazol-2-one oxalate] | 1700 | 0.7
CS(=O)(=O)O.O=c1[nH]c2ccccc2n1CCN1CCN(c2cccc(C(F)(F)F)c2)CC1 [VII, 1-[2-(4-(3-trifluoro-methyl-phenyl)piperazin-1-yl)ethyl]-2,3-dihydro-1H-benzimidazol-2-one mesylate] | 1100 | 3.4
O=S(=O)(O)c1ccccc1.O=c1[nH]c2ccccc2n1CCN1CCN(c2cccc(C(F)(F)F)c2)CC1 [VIII, 1-[2-(4-(3-trifluoro-methyl-phenyl)piperazin-1-yl)ethyl]-2,3-dihydro-1H-benzimidazol-2-one besylate] | 100 | 0.15
O=C1NS(=O)(=O)c2ccccc21.O=c1[nH]c2ccccc2n1CCN1CCN(c2cccc(C(F)(F)F)c2)CC1 [XI, 1-[2-(4-(3-trifluoro-methyl-phenyl)piperazin-1-yl)ethyl]-2,3-dihydro-1H-benzimidazol-2-one sacharinate] | 300 | 0.24
CCS(=O)(=O)O.O=c1[nH]c2ccccc2n1CCN1CCN(c2cccc(C(F)(F)F)c2)CC1 [XV, 1-[2-(4-(3-trifluoro-methyl-phenyl)piperazin-1-yl)ethyl]-2,3-dihydro-1H-benzimidazol-2-one ethansulfonate] | 1300 | 0.32
Cc1ccc(S(=O)(=O)O)cc1.O=c1[nH]c2ccccc2n1CCN1CCN(c2cccc(C(F)(F)F)c2)CC1 [XXX, 1-[2-(4-(3-trifluoro-methyl-phenyl)piperazin-1-yl)ethyl]-2,3-dihydro-1H-benzimidazol-2-one tosylate] | 90 | 0.25
O=C(O)/C=C/C(=O)O.O=c1[nH]c2ccccc2n1CCN1CCN(c2cccc(C(F)(F)F)c2)CC1 [XXXI, 1-[2-(4-(3-trifluoro-methyl-phenyl)piperazin-1-yl)ethyl]-2,3-dihydro-1H-benzimidazol-2-one fumarate] | 500 | 0.28
CC1(C)C2CCC1(CS(=O)(=O)O)C(=O)C2.O=c1[nH]c2ccccc2n1CCN1CCN(c2cccc(C(F)(F)F)c2)CC1 [XXXII, 1-[2-(4-(3-trifluoro-methyl-phenyl)piperazin-1-yl)ethyl]-2,3-dihydro-1H-benzimidazol-2-one camphorsulfonate] | 700 | 0.13
O=C(O)CO.O=c1[nH]c2ccccc2n1CCN1CCN(c2cccc(C(F)(F)F)c2)CC1 [XXXIII, 1-[2-(4-(3-trifluoro-methyl-phenyl)piperazin-1-yl)ethyl]-2,3-dihydro-1H-benzimidazol-2-one glycolate] | 500 | 0.20
